From US5279956A, “Activated protein C polypeptides and anti-peptide antibodies, diagnostic methods and systems for inhibiting activated protein C” (The Scripps Research Institute, priority 1991, dated 1994)
pIC50: −log10 of the molar value. No end group written: not given here.

Legend:
anti-(390-404) antibody [1] = test: Solid-phase ELISA: binding of anti-(390-404) antibody to immobilized peptides and PC; design: species or system rabbit
Method: To determine the immunospecificity of the rabbit antisera obtained in Example 2b, ELISA assays were performed. Briefly, 50 μl of either 50 μM peptide-(390-404) prepared in Example 1 or 10 μg/ml of PC or APC prepared in Example 2c in a buffer consisting of 0.05M sodium carbonate (Na2 CO3) and 0.02% NaN3 at pH 9.0 were admixed into the wells of microtiter plates. The plates were maintained at 37° C. for one hour to permit the antigens to become operatively affixed to the well walls. After washing the antigen-coated wells with TBS, the wells were blocked with 250 μl/well of 10% bovine serum albumin (BSA) (Sigma) in TBS for one hour at 22° C. The blocking solution was then removed and the wells were subsequently washed five times with 250 μl/well of maintenance buffer (0.05M Tris-HCl, 0.1M NaCl, 0.02% NaN3, 1 mg/ml BSA, 5 mM CaCl2, 0.01% Tween 20 at pH 7.4). Fifty μl of rabbit non-immune or specific antiserum serially diluted in maintenance buffer was then admixed to the washed wells and maintained for one hour at 37° C. to allow formation of a solid liquid phase immunoreaction products. The wells were then washed three times with maintenance buffer followed by admixture of 50 μl of 2.0 μg/ml of secondary antibody (polyclonal biotinylated goat-anti-rabbit-IgG) (Pierce Biochemicals) diluted in maintenance buffer to each well for the detection of immunoreactant products. The plates were maintained for 1 hour at 37° C. after which time the secondary antibody solution was removed. After washing the wells as described above, 50 μl of 2.0 μg/ml streptavidin-alkaline-phosphatase (Pierce Biochemicals) in maintenance buffer was admixed into each well and maintained for 30 minutes at 37° C. Detection of specific immunoreaction products was obtained by admixture of 150 μl/well of 5 mg/ml p-nitrophenylphosphate (PNPP) (Pierce Biochemicals) in 0.1M diethanolamine and 0.02% NaN3 at pH 9.6 followed by measurement of the change in absorbance at 405 nm over time using the EL312 Microplate Bio-Kinetics Reader and the KinetiCalc Software Program (Biotek Instruments, Inc., Vt.). Non-specific binding was considered as the measured absorbance in 10% BSA blocked wells which served as negative controls without the preceding coating of a specific protein or peptide. Under the described conditions, non-specific binding never exceeded more than 5% of the specific binding.
The specificity of immunoaffinity purified anti-(390-404) antibody towards peptide-(390-404) and PC was evaluated by measuring the binding in solid-phase ELISA of the antibody to immobilized peptides including -(384-398), -(390-404), -(396-410), -(404-390), and -K395A-(390-404) listed in Table 1 with their corresponding SEQ ID NO, and to PC. […]

anti-(390-404) antibody [2] = test: Cross-competition ELISA: anti-(390-404) antibody binding to immobilized PC with fluid-phase competitors; design: species or system rabbit; conditions: fluid-phase competitor
Method: FIG. 1 illustrates anti-(390-404) antibody binding to immobilized Protein C (PC) in the presence of fluid-phase PC, peptide-(390-404), -(404-390) and -K395A-(390-404). […] Before admixing 2 μg/ml anti-(390-404) antibody to PC-coated wells, the anti-(390-404) antibody was admixed with 0 to 200 μg/ml of either PC, 0 to 1000 μM peptide (-390-404), 0 to 1000 μM peptide-(404-390), or 0-200 μM peptide-K395A-(390-404) for 30 minutes at 37° C. Following biotinylated-goat-anti-rabbit-IgG and streptavidin-alkaline-phosphatase immunoreactions as described in Example 2c, bound anti-(390-404) antibody was detected by addition of 5 milligrams/milliliter (mg/ml) p-nitrophenylphosphate in 0.1M diethanolamine at pH 9.6 followed by measuring of the change in absorbance at 405 nm over time. The amount of anti-(390-404) specifically bound to PC coated wells in the absence of any competing protein was defined as 100%. […]
The specificity of anti-(390-404) antibody for peptide-(390-404) and PC was confirmed by cross-competition binding experiments. […] Bound anti-(390-404) antibody to immobilized PC in the presence of competitors was detected as described in Example 2c.

[3] = Solubility of peptide in buffer solutions; assay type: physicochemical; conditions: concentrations higher than 36 μM
Method: Purified peptides were separately resuspended in distilled water to form a dissolved peptide solution at a final concentration of 2.5 mM. Subsequently, […] containing 0.05M Tris hydroxymethyl aminomethanehydrochloride (Tris-HCl) at pH 7.4 (TBS-Az) 0.1M sodium chloride (NaCl), 0.02% sodium azide (NaN3). The pH of the solution was checked, and if necessary, adjusted to pH 7.4 with titrated amounts of 1M Tris-base. For peptides that appeared to be not completely soluble at 2.5 mM in TBS-Az, the partially dissolved peptide suspensions separately were centrifuged at 13,000×g to pellet the insoluble material. The molar concentrations in the resultant individual supernatants were estimated from the absorbance at 280 nm and 257 nm, respectively, for peptide solutions containing aromatic amino acids using a molar extinction coefficient of 5,600 M^-1 cm^-1 for tryptophan and 1,400 M^-1 cm^-1 for tyrosine at 280 nm, using a molar extinction coefficient of 200 M^-1 cm^-1 for phenylalanine at 257 nm. Peptides without aromatic amino acids and poor solubility in aqueous solutions were not evaluated in this invention.

APC = biological target: T1, APC (Homo sapiens, UniProt P04070); test: APC anticoagulant activity, APTT and Xa-1-stage coagulation assays (mean or both); assay type: biochemical; conditions: measured at 36 μM peptide
T1 construct: begins at amino acid residue position 158 and ends at 419; The light chain is 155 amino acid residues in length; tissue Factor IX concentrate from Immuno AG, Vienna; thrombin from Enzyme Research Laboratories
Method: The effect of the synthetic peptides on APC anticoagulant activity were determined using the APTT assay in the presence of either normal citrate anticoagulated plasma (NHP) or protein S depleted plasma (PSDP). The assays were performed essentially as described. See Marlar et al., Blood, 59:1067-1072 […]; Suzuki et al., J. Biol. Chem., 258:163-168 (1983); Gruber et al., Blood, 73:639-642 (1989); Ohlin et al., Biochem., 29:644-651 (1990). NHP was purchased from George King Bio-Medical, Inc. (Overland Park, Kans.). PSDP was prepared from a normal human citrate-anticoagulated plasma pool from ten healthy donors. Protein S was immunodepleted from the NHP by immunoaffinity chromatography of NHP over an anti-protein S antibody column to form PSDP. The anti-protein S antibody column was prepared by coupling 100 mg of a monoclonal, high-affinity, calcium-independent anti-PS antibody, designated S7, to 30 ml of CNBr-activated Sepharose 4B (Pharmacia) as described in Example 2c1).
For the APTT assay, APC was prepared as described in Example 2c2). […] The concentration of the APC used in the assay was initially optimized with respect to the sensitivity of the assay towards APC-induced prolongation of clotting time compared to clotting time without APC.
Once the optimal concentration of APC was determined, peptides from Table 2 were then separately admixed for a final concentration of 500 μM with 10 nM APC in 100 μl of TBS-BSA at pH 7.4 to form peptide-APC admixtures. The resulting admixtures were maintained for seven minutes at 37° C. Separate aliquots of peptides maintained under the same conditions in the absence of APC served as controls for the inhibitory effect of synthetic peptides on APC anticoagulant activity. After the maintenance period, 100 μl of NHP and 100 μl APTT-reagent Thrombosil (Ortho Diagnostics, Raritan, N.J.) were admixed into each peptide admixture and maintained for 200 seconds at 37° C. to form a pre-coagulation admixture. In some experiments, PSDP was used in the place of NHP to determine the effect of Protein S on the assay system. Coagulation was then initiated by the admixture of 100 μl of 30 mM CaCl2 in TBS prewarmed to 37° C. to each of the pre-coagulation admixtures. The time for clot formation was measured by an Electra 700 Automatic Coagulation Timer (Medical Laboratory Automation, Inc., Mount Vernon, N.Y.). Each peptide's effect was determined in duplicate.
The synthetic peptides listed in Table 4 are presented in the same order as listed in Table 2, i.e., are reproduced from Table 2. […] For peptides at a concentration of 500 μM that inhibited at least 50% of APC anticoagulant activity, analysis of dose-response was subsequently conducted. The column in Table 4 labeled "Inhibition of APC" represents the inhibition of APC anticoagulant activity measured with 500 μM peptide.
For testing the inhibition of the synthetic peptides on APC activity described above, Xa-1-stage coagulation assays were also performed as described. See Seegers et al., Thrombosis Res., 13:233-243 (1978); Marlar et al., supra; and Walker et al., J. Biol. Chem. 265:1484-1489 (1990).

T1 sequence (P04070 212-461): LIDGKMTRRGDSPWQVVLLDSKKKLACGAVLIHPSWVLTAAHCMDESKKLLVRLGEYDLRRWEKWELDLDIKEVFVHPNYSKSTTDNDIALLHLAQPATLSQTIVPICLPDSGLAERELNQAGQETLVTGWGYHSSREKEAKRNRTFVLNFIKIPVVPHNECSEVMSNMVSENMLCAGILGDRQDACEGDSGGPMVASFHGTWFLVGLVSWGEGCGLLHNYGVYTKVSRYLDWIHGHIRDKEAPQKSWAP
T1 sequence (P04070 43-197): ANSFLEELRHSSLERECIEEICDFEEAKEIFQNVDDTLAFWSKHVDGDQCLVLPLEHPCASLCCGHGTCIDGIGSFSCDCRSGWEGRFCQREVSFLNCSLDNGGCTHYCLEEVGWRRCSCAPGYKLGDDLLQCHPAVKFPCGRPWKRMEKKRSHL

Row | Substance | binding of anti-(390-404) antibody to immobilized peptide or PC (anti-(390-404) antibody [1]; solid-phase ELISA) | Anti-(390-404) (Absorbance/20 min.) (anti-(390-404) antibody [1]; wells coated with 50 μM peptide or 10 μg/ml PC, 2 μg/ml anti-(390-404) antibody, mean of duplicates) | competition with binding of anti-(390-404) antibody to immobilized PC (anti-(390-404) antibody [2]) | pIC50 (anti-(390-404) antibody [2]; 2 μg/ml antibody, 10 μg/ml PC coated, read-out: Half-maximal inhibition of anti-(390-404) antibody binding to immobilized PC) | solubility in buffer solutions [3] | inhibition at 36 µM (APC)
1 | Protein C: human Protein C zymogen immunoaffinity-purified from plasma factor IX concentrate | Significant immunoreactivity | 249 Absorbance/20 min. | competed significantly | ~8.04 | – | –
2 | YGVYTAVSRYLDWIH-NH2 [peptide-K395A-(390-404), YGVYTAVSRYLDWIH] | – | – | – | – | limitations of solubility in buffer solutions | 23%
